Here are results for 1 compound from PMC5799214, “A Novel Mitochondrial Serine O-Acetyltransferase, OpSAT1, Plays a Critical Role in Sulfur Metabolism in the Thermotolerant Methylotrophic Yeast Ogataea parapolymorpha” (Scientific Reports, 2018).

The target of one assay is T1, OpSat1p (GST-OpSat1p) (Ogataea parapolymorpha, UniProt W1Q867).
T1 construct: gene HPODL_02797; alpha/beta hydrolase 1 domain
T1 sequence (W1Q867 2-499): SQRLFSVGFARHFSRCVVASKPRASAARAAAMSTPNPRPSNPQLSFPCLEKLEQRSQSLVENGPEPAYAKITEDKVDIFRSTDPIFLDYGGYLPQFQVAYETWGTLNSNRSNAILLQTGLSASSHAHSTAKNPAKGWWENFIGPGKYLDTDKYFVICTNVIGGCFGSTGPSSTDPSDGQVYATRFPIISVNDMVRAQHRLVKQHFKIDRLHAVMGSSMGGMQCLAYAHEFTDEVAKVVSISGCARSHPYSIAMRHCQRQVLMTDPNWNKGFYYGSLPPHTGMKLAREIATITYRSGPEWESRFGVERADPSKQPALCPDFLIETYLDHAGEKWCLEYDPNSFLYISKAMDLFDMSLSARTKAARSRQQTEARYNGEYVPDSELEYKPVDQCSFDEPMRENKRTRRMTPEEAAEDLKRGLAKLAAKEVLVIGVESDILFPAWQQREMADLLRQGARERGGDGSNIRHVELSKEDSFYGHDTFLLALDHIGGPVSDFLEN
The assay is described as follows: SAT activity, decrease of OD232 (acetyl-CoA consumption). To be noted: read-out: concentration of cysteine at 50% inhibition. The format is biochemical.

Another assay has as its target T2, CysE (GST-CysE) (Escherichia coli, UniProt P0A9D4).
T2 construct: template plasmid pCysE
T2 sequence (P0A9D4 2-273): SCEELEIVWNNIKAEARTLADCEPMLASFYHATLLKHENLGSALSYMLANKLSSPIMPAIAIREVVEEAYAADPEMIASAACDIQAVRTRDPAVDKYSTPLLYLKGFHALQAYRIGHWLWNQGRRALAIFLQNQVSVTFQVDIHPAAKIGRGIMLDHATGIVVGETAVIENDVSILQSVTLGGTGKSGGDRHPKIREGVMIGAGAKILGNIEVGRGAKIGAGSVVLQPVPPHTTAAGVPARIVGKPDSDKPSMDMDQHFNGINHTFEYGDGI
Described as above. It is filed as biochemical. The settings on record: read-out: % residual activity at 1 μM.

Regarding `N[C@@H](CS)C(=O)O` [L-cysteine], the IC50 on OpSat1p (GST-OpSat1p) was around 250 µM. Further, the remaining activity at 1 µM at CysE (GST-CysE) is around 40%.
